The target of experiment [1] is recombinant human A2A receptors (Homo sapiens, UniProt P29274). Description: Radioligand competition binding to recombinant human A2A receptors in Sf9 cell membranes. The conditions noted are these: A2A ± SEM, Ki from competition binding, Sf9 cell membranes. Background: Loss of bound radioactivity is the signal in a displacement assay; it reports binding, not function.
Description: (§1) Sf9 cells were cultured in Grace's medium supplemented with 10% fetal bovine serum, 2.5 μg/ml amphotericin B and 50 μg/ml gentamycin in an atmosphere of 50% N2/50% O2. […] Infected cells were harvested 3 days post-infection and washed twice in insect PBS (PBS pH 6.3). Cells were then resuspended in lysis buffer (20 mM HEPES pH 7.5, 150 mM NaCl, 3 mM MgCl2, 1 mM β-mercaptoethanol (BME), 5 μg/mL leupeptin, 5 μg/mL pepstatin A, 1 μg/mL aprotinin, and 0.1 mM PMSF) and snap frozen for storage at −80° C. Cells were thawed on ice, brought to 30 mL total volume in lysis buffer, and burst by N2 cavitation (600 psi for 20 minutes). A low-speed centrifugation was performed to remove any unlysed cells (1000×g for 10 minutes), followed by a high-speed centrifugation (17,000×g for 30 minutes). The pellet from the final centrifugation was homogenized in buffer containing 20 mM HEPES pH 8, 100 mM NaCl, 1% glycerol, 2 μg/mL leupeptin, 2 μg/mL pepstatin A, 2 μg/mL Aprotinin, 0.1 mM PMSF, and 10 μM GDP using a small glass homogenizer followed by passage through a 26 gauge needle. Membranes were aliquoted, snap frozen in liquid N2, and stored at −80° C.
(§2) Binding experiments were performed in triplicate with 5 μg (A2A) or 25 μg (A1 and A3) membrane protein in a total volume of 0.1 mL HE buffer (20 mM HEPES and 1 mM EDTA) with 1 U/mL adenosine deaminase and 5 mM MgCl2 with or without 50 μM GTPγS. Membranes were incubated with radioligands at room temperature for three hours (for agonists) or two hours (for antagonists) in Millipore Multiscreene® 96-well GF/C filter plates and assays were terminated by rapid filtration on a cell harvester (Brandel, Gaithersburg, Md.) followed by 4×150 μl washes over 30 seconds with ice cold 10 mM Tris-HCl, pH 7.4, 10 mM MgCl2.

Another experiment concerns the target T1, human A1 AR (Homo sapiens, UniProt P30542).
T1 sequence (P30542 1-326): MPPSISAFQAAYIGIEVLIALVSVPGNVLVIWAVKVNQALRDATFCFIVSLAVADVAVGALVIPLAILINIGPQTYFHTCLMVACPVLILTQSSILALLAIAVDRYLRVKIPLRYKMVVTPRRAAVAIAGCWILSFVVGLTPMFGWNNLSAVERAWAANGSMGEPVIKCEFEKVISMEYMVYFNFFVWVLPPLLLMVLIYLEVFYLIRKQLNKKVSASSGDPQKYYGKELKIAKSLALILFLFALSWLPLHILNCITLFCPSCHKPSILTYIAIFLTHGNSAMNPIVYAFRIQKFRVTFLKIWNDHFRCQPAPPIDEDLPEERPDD
Description: Radioligand competition binding (125I-ABA) to human A1 AR in CHO K1 cell membranes. As to conditions: for Ki: A1 ± SEM, Ki from competition binding, 125I-ABA, CHO K1 cell membranes; for A1/A2A: selectivity ratio A1 over A2A.

The target in the next experiment is T2, A3 AR (Homo sapiens, UniProt P0DMS8).
T2 sequence (P0DMS8 1-318): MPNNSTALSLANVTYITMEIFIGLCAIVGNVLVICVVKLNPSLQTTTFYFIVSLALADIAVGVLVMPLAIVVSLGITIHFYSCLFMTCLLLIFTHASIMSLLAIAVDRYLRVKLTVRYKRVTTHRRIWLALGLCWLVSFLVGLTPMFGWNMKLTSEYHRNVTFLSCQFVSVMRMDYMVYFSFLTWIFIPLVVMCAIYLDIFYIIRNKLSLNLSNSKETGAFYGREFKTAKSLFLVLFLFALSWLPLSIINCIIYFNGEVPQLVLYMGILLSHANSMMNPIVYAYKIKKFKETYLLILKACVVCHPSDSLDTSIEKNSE
Kind of experiment: Radioligand competition binding (125I-ABA) to human A3 AR in HEK 293 cell membranes. The conditions noted are these: for Ki: A3 ± SEM, Ki from competition binding, 125I-ABA, HEK 293 cell membranes; for A3/A2A: selectivity ratio A3 over A2A.

The subject of a further experiment is human neutrophils. Kind of experiment: Human neutrophil oxidative activity, luminol-enhanced chemiluminescence. It counts as cell-based. The conditions noted are these: for EC50: Homo sapiens, Neutrophil, human neutrophil experiment w/o Rolipram, read-out: PMN oxid (-log EC50) (converted); for PMN oxid + roli (-log EC50): human neutrophil experiment w/Rolipram. An outline of the steps: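 Purified human neutrophils (5–10×10^5/ml) pre-incubated 30 min at 37 °C with the A2A agonist, ± rolipram and ± TNF-α (1 U/ml), then stimulated with fMLP (1 μM final). Peak luminol-enhanced chemiluminescence expressed as percent of no-agonist control. EC50 from three donors.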

recombinant human A2A receptors, sequence (P29274 whole entry): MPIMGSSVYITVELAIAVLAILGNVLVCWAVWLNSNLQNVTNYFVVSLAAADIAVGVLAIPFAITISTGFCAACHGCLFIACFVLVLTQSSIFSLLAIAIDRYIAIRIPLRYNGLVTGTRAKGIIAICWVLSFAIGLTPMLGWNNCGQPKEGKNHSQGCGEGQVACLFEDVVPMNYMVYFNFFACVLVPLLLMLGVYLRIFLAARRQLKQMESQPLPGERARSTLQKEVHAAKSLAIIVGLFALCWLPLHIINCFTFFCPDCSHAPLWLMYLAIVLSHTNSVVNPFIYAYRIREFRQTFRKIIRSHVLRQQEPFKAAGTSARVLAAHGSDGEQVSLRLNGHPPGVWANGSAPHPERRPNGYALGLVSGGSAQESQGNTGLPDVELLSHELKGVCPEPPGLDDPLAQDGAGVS
Description for A3 AR: as §1, §2

The Ki is a dissociation constant, usually derived from enzyme kinetics or from competition with a known ligand. One may read the EC50 as the concentration at which the effect is half-maximal. Consider `CCNC(=O)[C@H]1O[C@@H](n2cnc3c(N)nc(C#CC4(O)CCC(CC)CC4)nc32)C(O)C1O` (stereo in doubt) [JR-3149, 5-[6-Amino-2-(4-ethyl-1-hydroxy-cyclohexylethynyl)-purin-9-yl]-3,4-dihydroxytetrahydrofuran-2-carboxylic acid ethylamide], for which the Ki in experiment [1] amounted to 0.5 ± 0.05 nM. For the same compound, on human A1 AR, the inhibitory constant (Ki) was determined as 3.8 ± 0.4 nM and the A1/A2A is on record as 7.0. In addition, on A3 AR, the Ki worked out at 7.3 ± 1.9 nM and the A3/A2A is given as 13.5. In the experiment with human neutrophils, the concentration for a half-maximal effect (EC50) was 2.19 nM and the “PMN oxid + roli (-log EC50)” value was 9.63.
Consider `CCNC(=O)[C@H]1O[C@@H](n2cnc3c(N)nc(C#CC4(O)CCC(c5ccccc5)CC4)nc32)C(O)C1O` (stereo in doubt) [JR-3161, 5-[6-Amino-2-(1-hydroxy-4-phenyl-cyclohexylethynyl)-purin-9-yl]-3,4-dihydroxytetrahydrofuran-2-carboxylic acid ethylamide], for which, in experiment [1], the inhibition constant Ki turned out to be 0.9 ± 0.04 nM. Besides, at human A1 AR, the Ki is 10.9 ± 0.5 nM and the A1/A2A stood at 12.2. In addition, on A3 AR, the Ki is 113 ± 6 nM and the A3/A2A turned out to be 127.0. Also, in the experiment on human neutrophils, the EC50 was 4.47 nM and the “PMN oxid + roli (-log EC50)” value is 9.29.
As for `CCNC(=O)[C@H]1O[C@@H](n2cnc3c(N)nc(C#CC4(O)CC(C)(C)CC(C)(C)C4)nc32)C(O)C1O` (stereo in doubt) [JR-3163, 5-[6-Amino-2-(1-hydroxy-3,3,5,5-tetramethyl-cyclohexylethynyl)-purin-9-yl]-3,4-dihydroxytetrahydrofuran-2-carboxylic acid ethylamide], the Ki in experiment [1] was determined as 11.1 ± 2.8 nM. Further, at human A1 AR, the affinity corresponds to a Ki of 784 ± 94 nM and the A1/A2A amounted to 70.6. In addition, on A3 AR, the Ki worked out at 152 ± 62 nM and the A3/A2A is listed as 13.7. Further, in the experiment on human neutrophils, the EC50 was 537 nM and the “PMN oxid + roli (-log EC50)” value is 7.67.
For the compound `CCNC(=O)[C@H]1O[C@@H](n2cnc3c(N)nc(C#CC4(O)CCCC(C)(C)C4)nc32)C(O)C1O` (stereo in doubt) [JR-3201B, 5-[6Amino-2-(1-hydroxy-3,3-dimethylcyclohexylethynyl)-purin-9-yl]-3,4-dihydroxytetrahydrofuran-2-carboxylic acid ethylamide], the inhibitory constant (Ki) in experiment [1] was determined as 1.6 ± 0.28 nM. At human A1 AR, the inhibitory constant (Ki) turned out to be 157 ± 14 nM and the A1/A2A was found to be 98.1. For the same compound, at A3 AR, the inhibitory constant (Ki) was 23.6 ± 0.35 nM and the A3/A2A is 14.8. For the same compound, in the experiment with human neutrophils, the EC50 was 8.71 nM and the “PMN oxid + roli (-log EC50)” value came out at 9.2.
Turning to `CCNC(=O)[C@H]1O[C@@H](n2cnc3c(N)nc(C#CC4(O)CCC(C(C)(C)C)CC4)nc32)C(O)C1O` (stereo in doubt) [JR-3203, 5-[6-Amino-2-(4-tert-butyl-1-hydroxycyclohexylethynyl)purin-9-yl]-3,4-dihydroxytetrahydrofuran-2-carboxylic acid ethylamide], in experiment [1], the Ki came to 1.5 ± 0.22 nM. On human A1 AR, the affinity, expressed as Ki, was 14.7 ± 2.2 nM and the A1/A2A was determined as 9.5. Also, at A3 AR, the Ki stood at 43.3 ± 18 nM and the A3/A2A came out at 28.1. Moreover, in the experiment with human neutrophils, the EC50 was 14.1 nM and the “PMN oxid + roli (-log EC50)” value amounted to 9.11.
Regarding `CCNC(=O)[C@H]1O[C@@H](n2cnc3c(N)nc(C#CCN4CCN(C(=O)OCC)CC4)nc32)C(O)C1O` (stereo in doubt) [JR-3213, 4-{3-[6-Amino-9-(5-ethylcarbamoyl-3,4-dihydroxytetrahydrofuran-2-yl)-9H-purin-2-yl]-prop-2-ynyl}-piperazine-1-carboxylic acid ethyl ester], the Ki in experiment [1] was 1.9 ± 0.4 nM. Moreover, at human A1 AR, the Ki came out at 15.8 ± 0.48 nM and the A1/A2A worked out at 8.3. Also, at A3 AR, the affinity corresponds to a Ki of 42.3 ± 18.3 nM and the A3/A2A turned out to be 22.3. In the experiment with human neutrophils, the EC50 is 3.47 nM and the “PMN oxid + roli (-log EC50)” value was determined as 9.11.
With `CCNC(=O)[C@H]1O[C@@H](n2cnc3c(N)nc(C#CC4(O)CCCCC4C(C)(C)C)nc32)C(O)C1O` (stereo in doubt) [JR-3227, 5-[6-Amino-2-(2-tert-butyl-1-hydroxycyclohexylethynyl)purin-9-yl]-3,4-dihydroxytetrahydrofuran-2-carboxylic acid ethylamide], the Ki in experiment [1] came to 25.1 ± 1.3 nM. Besides, on human A1 AR, the Ki amounted to 536 nM and the A1/A2A is 21.4. For the same compound, at A3 AR, the Ki was 50 nM and the A3/A2A is 2.0. In addition, in the experiment on human neutrophils, the EC50 is 7410 nM and the “PMN oxid + roli (-log EC50)” value is given as 7.14.
Consider `CCNC(=O)[C@H]1O[C@@H](n2cnc3c(N)nc(C#CCC4CCN(C(=O)OC(C)(C)C)CC4)nc32)C(O)C1O` (stereo in doubt) [JR-3259, 4-{3-[6-Amino-9-(5-ethylcarbamoyl-3,4-dihydroxytetrahydrofuran-2-yl)-9H-purin-2-yl]-prop-2-ynyl}-piperidine-1-carboxylic acid tert-butyl ester], for which the Ki in experiment [1] was 0.9 ± 0.1 nM. Besides, on human A1 AR, the Ki turned out to be 205 ± 2.6 nM and the A1/A2A is reported as 227.8. For the same compound, on A3 AR, the Ki turned out to be 45.6 ± 10 nM and the A3/A2A came out at 50.7. In addition, in the experiment on human neutrophils, the EC50 is 3.47 nM and the “PMN oxid + roli (-log EC50)” value is 9.26.
Consider `CCNC(=O)[C@H]1O[C@@H](n2cnc3c(N)nc(C#CCC4CCN(C(=O)OCC)CC4)nc32)C(O)C1O` (stereo in doubt) [JR-3269, 4-{3-[6-Amino-9-(5-ethylcarbamoyl-3,4-dihydroxytetrahydrofuran-2-yl)-9H-purin-2-yl]-prop-2-ynyl}-piperidine-1-carboxylic acid ethyl ester], for which, in experiment [1], the Ki is 1.26 ± 0.21 nM. For the same compound, at human A1 AR, the Ki came out at 134 nM and the A1/A2A is 106.0. On A3 AR, affinity was put at a Ki of 68.6 nM and the A3/A2A worked out at 54.4. For the same compound, in the experiment on human neutrophils, the EC50 was 2.24 nM.
For `CCNC(=O)[C@H]1O[C@@H](n2cnc3c(N)nc(C#CCN4CCC(C(=O)OCC)CC4)nc32)C(O)C1O` (stereo in doubt) [JR-3279, 1-{3-[6-Amino-9-(5-ethylcarbamoyl-3,4-dihydroxytetrahydrofuran-2-yl)-9H-purin-2-yl]-prop-2-ynyl}-piperidine-4-carboxylic acid ethyl ester], the Ki in experiment [1] amounted to 3.82 ± 0.95 nM; on human A1 AR, 14.4 nM. Further, the A1/A2A on human A1 AR turned out to be 3.8. For the same compound, at A3 AR, the A3/A2A was found to be 0.0. In addition, in the experiment on human neutrophils, the EC50 is 13.8 nM.
For the compound `CCNC(=O)[C@H]1O[C@@H](n2cnc3c(N)nc(C#CCN4CCN(C(=O)OC(C)(C)C)CC4)nc32)C(O)C1O` (stereo in doubt) [JR-3281, 4-{3-[6-Amino-9-(5-ethylcarbamoyl-3,4-dihydroxytetrahydrofuran-2-yl)-9H-purin-2-yl]-prop-2-ynyl}-piperazine-1-carboxylic acid tert-butyl ester], the Ki in experiment [1] came to 2.36 ± 0.5 nM. Moreover, on human A1 AR, the affinity corresponds to a Ki of 9.15 ± 1.35 nM and the A1/A2A was 3.9. Besides, at A3 AR, affinity was put at a Ki of 38 nM and the A3/A2A turned out to be 16.1. Moreover, in the experiment with human neutrophils, the EC50 was 6.46 nM.
Regarding `CCNC(=O)[C@H]1O[C@@H](n2cnc3c(N)nc(C#CCN4CCN(c5ncccn5)CC4)nc32)C(O)C1O` (stereo in doubt) [JR-3283, 5-{6-Amino-2-[3-(4-pyrimidin-2-yl-piperazin-1-yl)-prop-1-ynyl]-purin-9-yl}-3,4-dihydroxytetrahydrofuran-2-carboxylic acid ethylamide], the values for the Ki (in experiment [1]; at human A1 AR; at A3 AR) were 2 ± 0.25 nM, 15.3 ± 0.4 nM and 66.2 nM, respectively. At human A1 AR, the A1/A2A is recorded as 4.6. For the same compound, at A3 AR, the A3/A2A turned out to be 19.0. Also, the concentration giving a half-maximal response (EC50) with human neutrophils was 5.75 nM.

Values taken from patent publication US7737127B2, “2-propynyl adenosine analogs having A2A agonist activity and compositions thereof” (University of Virginia Patent Foundation, priority 2001, dated 2010).
